Assay results as given in ChEMBL document CHEMBL1127002, “Substituted pyrrolidin-2-one biphenyltetrazoles as angiotensin II antagonists” (Bioorg Med Chem Lett, 1993).
Calls of active or inactive are those of the source. The calls are words filed in the database; no cut-off is given here.

What was measured:
Oryctolagus cuniculus = organism: Oryctolagus cuniculus; experiment: Tested for inhibitory activity against angiotensin II induced contraction in rabbit aortic rings; assay type: functional; settings: Aorta, read-out: pA2 (converted)
[1] = target: T1, Type-1 angiotensin II receptor (Bos taurus, UniProt P25104); experiment: Concentration that gives 50% inhibition for binding of 125-I-[Sar1, IIe8] angiotensin to Angiotensin II receptor, type 1 in bovine adrenal cortex membrane.; assay type: cell membranes
T1 sequence (P25104 whole entry): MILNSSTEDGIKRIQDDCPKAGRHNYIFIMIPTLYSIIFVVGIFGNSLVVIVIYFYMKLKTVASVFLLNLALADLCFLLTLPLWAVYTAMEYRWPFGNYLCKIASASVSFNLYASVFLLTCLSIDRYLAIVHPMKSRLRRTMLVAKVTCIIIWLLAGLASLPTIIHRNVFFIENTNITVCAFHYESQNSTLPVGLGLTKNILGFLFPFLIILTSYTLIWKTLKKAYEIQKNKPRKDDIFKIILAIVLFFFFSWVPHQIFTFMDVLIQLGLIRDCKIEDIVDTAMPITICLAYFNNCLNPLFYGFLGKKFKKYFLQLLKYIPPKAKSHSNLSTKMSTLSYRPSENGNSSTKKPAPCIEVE

Rattus norvegicus = experiment: Tested for antihypertensive activity in spontaneously hypertensive rats (SHR) after oral administration; A - Compound shows antihypertensive activity.; assay type: functional, organism-based

SMILES	Kb (Oryctolagus cuniculus)	IC50 [1]	Activity (Rattus norvegicus)
CCOC(=O)/C=C1\C2CC=CCC2C(=O)N1Cc1ccc(-c2ccccc2-c2nn[nH]n2)cc1 (centres undefined)	31.6 nM	–	–
CCCCc1nc(Cl)c(CO)n1Cc1ccc(-c2ccccc2-c2nnn[nH]2)cc1 [LOSARTAN]	1.58 nM	425 nM	–
CCOC(=O)/C=C1\N(Cc2ccc(-c3ccccc3-c3nn[nH]n3)cc2)C(=O)CC1(C)CC (centres undefined)	25.1 nM	60 nM	–
CCOC(=O)/C=C1\C2C3CCCC(CC3)C2C(=O)N1Cc1ccc(-c2ccccc2-c2nn[nH]n2)cc1 (centres undefined)	20 nM	–	A
CCOC(=O)/C=C1\C2C(C(=O)N1Cc1ccc(-c3ccccc3-c3nn[nH]n3)cc1)C1CCC2C1(c1ccccc1)c1ccccc1 (centres undefined)	> 1000 nM	–	–
CCOC(=O)/C=C1\C2C(C(=O)N1Cc1ccc(-c3ccccc3-c3nn[nH]n3)cc1)C1CCC2C1(C)C (centres undefined)	251 nM	–	–
CCOC(=O)/C=C1\N(Cc2ccc(-c3ccccc3-c3nnn[nH]3)cc2)C(=O)CC12CCCCC2	12.6 nM	140 nM	–
CCOC(=O)/C=C1\C2C3CCC(C3)C2C(=O)N1Cc1ccc(-c2ccccc2-c2nn[nH]n2)cc1 (centres undefined)	1 nM	–	–
CCOC(=O)/C=C1\C2C3CCC(O3)C2C(=O)N1Cc1ccc(-c2ccccc2-c2nn[nH]n2)cc1 (centres undefined)	3.98 nM	–	–
CCOC(=O)/C=C1/C(C)CC(=O)N1Cc1ccc(-c2ccccc2-c2nn[nH]n2)cc1 (centres undefined)	316 nM	3100 nM	–
CCOC(=O)/C=C1\N(Cc2ccc(-c3ccccc3-c3nn[nH]n3)cc2)C(=O)CC12CCCCCC2	3.98 nM	–	Active
CCOC(=O)/C=C1\C2C3C=CC(CCC3)C2C(=O)N1Cc1ccc(-c2ccccc2-c2nn[nH]n2)cc1 (centres undefined)	39.8 nM	–	–
CCOC(=O)/C=C1\C2C3C=CC(CC3)C2C(=O)N1Cc1ccc(-c2ccccc2-c2nn[nH]n2)cc1 (centres undefined)	6.31 nM	–	–
CCOC(=O)/C=C1\N(Cc2ccc(-c3ccccc3-c3nn[nH]n3)cc2)C(=O)CC1(CC)CC	12.6 nM	100 nM	–
CCOC(=O)/C=C1\C2C3C=CC(C3)C2C(=O)N1Cc1ccc(-c2ccccc2-c2nn[nH]n2)cc1 (centres undefined)	3.98 nM	–	–
CCOC(=O)/C=C1\C2C(C(=O)N1Cc1ccc(-c3ccccc3-c3nn[nH]n3)cc1)C1C=CC2(OC)CC1 (centres undefined)	5.01 nM	–	–
CCOC(=O)/C=C1\N(Cc2ccc(-c3ccccc3-c3nnn[nH]3)cc2)C(=O)CC12CCCCCC2	–	60 nM	–
CCOC(=O)/C=C1\C2C3CCC(CC3)C2C(=O)N1Cc1ccc(-c2ccccc2-c2nn[nH]n2)cc1 (centres undefined)	10 nM	–	A
CCOC(=O)/C=C1\C2CCCCC2C(=O)N1Cc1ccc(-c2ccccc2-c2nn[nH]n2)cc1 (centres undefined)	3.98 nM	–	–
CCOC(=O)/C=C1\N(Cc2ccc(-c3ccccc3-c3nn[nH]n3)cc2)C(=O)CC12CCCC2	3.16 nM	250 nM	–
